#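 GI50 = concentration required for 50% inhibition of growth. TGI denotes the concentration required for complete inhibition of growth.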
# Legend:
# Test in all cases: NCI-60 cell line screen, 384-well format
# A498 renal = tested on: A498 renal
# ACHN renal = tested on: ACHN renal
# CCRF-CEM leukemia = tested on: CCRF-CEM leukemia
# HCC-2998 colon = tested on: HCC-2998 colon
# HCT-15 colon = tested on: HCT-15 colon
# HL-60(TB) leukemia = tested on: HL-60(TB) leukemia
# HOP-92 NSCLC = tested on: HOP-92 NSCLC
# HT29 colon = tested on: HT29 colon
# IGROV1 ovarian = tested on: IGROV1 ovarian
# LOX IMVI melanoma = tested on: LOX IMVI melanoma
# M14 melanoma = tested on: M14 melanoma
# MALME-3M melanoma = tested on: MALME-3M melanoma
# MCF7 breast = tested on: MCF7 breast
# MDA-MB-231 breast = tested on: MDA-MB-231 breast
# MDA-MB-435 melanoma = tested on: MDA-MB-435 melanoma
# MDA-MB-468 breast = tested on: MDA-MB-468 breast
# MOLT-4 leukemia = tested on: MOLT-4 leukemia
# NCI-H226 lung = tested on: NCI-H226 lung
# NCI-H322M lung = tested on: NCI-H322M lung
# OVCAR-3 ovarian = tested on: OVCAR-3 ovarian
# OVCAR-4 ovarian = tested on: OVCAR-4 ovarian
# OVCAR-5 ovarian = tested on: OVCAR-5 ovarian
# RPMI-8226 leukemia = tested on: RPMI-8226 leukemia
# RXF 393 renal = tested on: RXF 393 renal
# SF-295 CNS = tested on: SF-295 CNS
# SK-MEL-2 melanoma = tested on: SK-MEL-2 melanoma
# SK-MEL-28 melanoma = tested on: SK-MEL-28 melanoma
# SK-MEL-5 melanoma = tested on: SK-MEL-5 melanoma
# SK-OV-3 ovarian = tested on: SK-OV-3 ovarian
# SR leukemia = tested on: SR leukemia
# SW-620 colon = tested on: SW-620 colon
# TK-10 renal = tested on: TK-10 renal
# UACC-257 melanoma = tested on: UACC-257 melanoma
# UACC-62 melanoma = tested on: UACC-62 melanoma
# UO-31 renal = tested on: UO-31 renal
# 786-0 renal = tested on: 786-0 renal
# A549 NSCLC = tested on: A549 NSCLC
# BT-549 breast = tested on: BT-549 breast
# CAKI-1 renal = tested on: CAKI-1 renal
# COLO 205 colon = tested on: COLO 205 colon
# DU-145 prostate = tested on: DU-145 prostate
# EKVX NSCLC = tested on: EKVX NSCLC
# HCT-116 colon = tested on: HCT-116 colon
# HOP-62 NSCLC = tested on: HOP-62 NSCLC
# HS 578T breast = tested on: HS 578T breast
# K-562 leukemia = tested on: K-562 leukemia
# KM12 colon = tested on: KM12 colon
# NCI-H23 lung = tested on: NCI-H23 lung
# NCI-H460 NSCLC = tested on: NCI-H460 NSCLC
# NCI-H522 lung = tested on: NCI-H522 lung
# OVCAR-8 ovarian = tested on: OVCAR-8 ovarian
# PC-3 prostate = tested on: PC-3 prostate
# SF-268 CNS = tested on: SF-268 CNS
# SF-539 CNS = tested on: SF-539 CNS
# SN12C renal = tested on: SN12C renal
# SNB-19 CNS = tested on: SNB-19 CNS
# SNB-75 CNS = tested on: SNB-75 CNS
# T-47D breast = tested on: T-47D breast
# U251 glioblastoma = tested on: U251 glioblastoma
structure (smiles),measurement,setting,value
O=C(c1cc(-c2cc3c(cc2C(=O)N2Cc4ccccc4C[C@H]2CN2CCOCC2)OCO3)n2c1CCCC2)N(c1ccccc1)c1ccc(O)cc1,GI50,A498 renal,806 nM
same,TGI,A498 renal,3570 nM
same,GI50,ACHN renal,4910 nM
same,TGI,ACHN renal,> 100000 nM
same,GI50,CCRF-CEM leukemia,255 nM
same,TGI,CCRF-CEM leukemia,618 nM
same,GI50,HCC-2998 colon,1270 nM
same,TGI,HCC-2998 colon,2830 nM
same,GI50,HCT-15 colon,1750 nM
same,TGI,HCT-15 colon,3220 nM
same,GI50,HL-60(TB) leukemia,146 nM
same,TGI,HL-60(TB) leukemia,280 nM
same,GI50,HOP-92 NSCLC,502 nM
same,TGI,HOP-92 NSCLC,2420 nM
same,GI50,HT29 colon,419 nM
same,TGI,HT29 colon,1460 nM
same,GI50,IGROV1 ovarian,2770 nM
same,TGI,IGROV1 ovarian,> 100000 nM
same,GI50,LOX IMVI melanoma,1420 nM
same,TGI,LOX IMVI melanoma,3250 nM
same,GI50,M14 melanoma,475 nM
same,TGI,M14 melanoma,1700 nM
same,GI50,MALME-3M melanoma,473 nM
same,TGI,MALME-3M melanoma,4710 nM
same,GI50,MCF7 breast,412 nM
same,TGI,MCF7 breast,3000 nM
same,GI50,MDA-MB-231 breast,1190 nM
same,TGI,MDA-MB-231 breast,3230 nM
same,GI50,MDA-MB-435 melanoma,144 nM
same,TGI,MDA-MB-435 melanoma,351 nM
same,GI50,MDA-MB-468 breast,214 nM
same,TGI,MDA-MB-468 breast,456 nM
same,GI50,MOLT-4 leukemia,182 nM
same,TGI,MOLT-4 leukemia,327 nM
same,GI50,NCI-H226 lung,1010 nM
same,TGI,NCI-H226 lung,3180 nM
same,GI50,NCI-H322M lung,2430 nM
same,TGI,NCI-H322M lung,> 100000 nM
same,GI50,OVCAR-3 ovarian,210 nM
same,TGI,OVCAR-3 ovarian,497 nM
same,GI50,OVCAR-4 ovarian,1290 nM
same,TGI,OVCAR-4 ovarian,4430 nM
same,GI50,OVCAR-5 ovarian,2760 nM
same,TGI,OVCAR-5 ovarian,8210 nM
same,GI50,RPMI-8226 leukemia,207 nM
same,TGI,RPMI-8226 leukemia,437 nM
same,GI50,RXF 393 renal,137 nM
same,TGI,RXF 393 renal,484 nM
same,GI50,SF-295 CNS,2040 nM
same,TGI,SF-295 CNS,4280 nM
same,GI50,SK-MEL-2 melanoma,176 nM
same,TGI,SK-MEL-2 melanoma,704 nM
same,GI50,SK-MEL-28 melanoma,735 nM
same,TGI,SK-MEL-28 melanoma,2600 nM
same,GI50,SK-MEL-5 melanoma,305 nM
same,TGI,SK-MEL-5 melanoma,928 nM
same,GI50,SK-OV-3 ovarian,356 nM
same,TGI,SK-OV-3 ovarian,1460 nM
same,GI50,SR leukemia,77.3 nM
same,TGI,SR leukemia,206 nM
same,GI50,SW-620 colon,444 nM
same,TGI,SW-620 colon,1540 nM
same,GI50,TK-10 renal,2830 nM
same,TGI,TK-10 renal,> 100000 nM
same,GI50,UACC-257 melanoma,362 nM
same,TGI,UACC-257 melanoma,1250 nM
same,GI50,UACC-62 melanoma,356 nM
same,TGI,UACC-62 melanoma,1820 nM
same,GI50,UO-31 renal,4170 nM
same,TGI,UO-31 renal,> 100000 nM
C#CC[C@H](c1nc2cc(Cl)ccc2c(=O)n1Nc1ccccc1)N(CCCN)C(=O)c1cccc(Cl)c1F,GI50,786-0 renal,678 nM
same,TGI,786-0 renal,1960 nM
same,GI50,A498 renal,553 nM
same,TGI,A498 renal,1820 nM
same,GI50,A549 NSCLC,62.5 nM
same,TGI,A549 NSCLC,1880 nM
same,GI50,ACHN renal,1110 nM
same,TGI,ACHN renal,2320 nM
same,GI50,BT-549 breast,166 nM
same,TGI,BT-549 breast,1080 nM
same,GI50,CAKI-1 renal,795 nM
same,TGI,CAKI-1 renal,2030 nM
same,GI50,COLO 205 colon,30.3 nM
same,TGI,COLO 205 colon,82.9 nM
same,GI50,DU-145 prostate,58.9 nM
same,TGI,DU-145 prostate,1060 nM
same,GI50,EKVX NSCLC,89.6 nM
same,TGI,EKVX NSCLC,1460 nM
same,GI50,HCT-116 colon,36.5 nM
same,TGI,HCT-116 colon,1170 nM
same,GI50,HCT-15 colon,1500 nM
same,TGI,HCT-15 colon,2850 nM
same,GI50,HL-60(TB) leukemia,19.9 nM
same,TGI,HL-60(TB) leukemia,34.6 nM
same,GI50,HOP-62 NSCLC,354 nM
same,TGI,HOP-62 NSCLC,1540 nM
same,GI50,HOP-92 NSCLC,674 nM
same,TGI,HOP-92 NSCLC,2140 nM
same,GI50,HS 578T breast,17.8 nM
same,TGI,HS 578T breast,44.8 nM
same,GI50,HT29 colon,36.1 nM
same,TGI,HT29 colon,173 nM
same,GI50,IGROV1 ovarian,1030 nM
same,TGI,IGROV1 ovarian,2220 nM
same,GI50,K-562 leukemia,44.9 nM
same,TGI,K-562 leukemia,219 nM
same,GI50,KM12 colon,56.8 nM
same,TGI,KM12 colon,670 nM
same,GI50,M14 melanoma,363 nM
same,TGI,M14 melanoma,1440 nM
same,GI50,MALME-3M melanoma,189 nM
same,TGI,MALME-3M melanoma,1760 nM
same,GI50,MCF7 breast,23.1 nM
same,TGI,MCF7 breast,1110 nM
same,GI50,MDA-MB-231 breast,63 nM
same,TGI,MDA-MB-231 breast,1700 nM
same,GI50,MDA-MB-435 melanoma,17.8 nM
same,TGI,MDA-MB-435 melanoma,35.9 nM
same,GI50,MDA-MB-468 breast,18.3 nM
same,TGI,MDA-MB-468 breast,39.6 nM
same,GI50,MOLT-4 leukemia,19.4 nM
same,TGI,MOLT-4 leukemia,34.4 nM
same,GI50,NCI-H226 lung,1110 nM
same,TGI,NCI-H226 lung,2310 nM
same,GI50,NCI-H23 lung,73.7 nM
same,TGI,NCI-H23 lung,799 nM
same,GI50,NCI-H322M lung,52.8 nM
same,TGI,NCI-H322M lung,1520 nM
same,GI50,NCI-H460 NSCLC,48 nM
same,TGI,NCI-H460 NSCLC,1120 nM
same,GI50,NCI-H522 lung,20 nM
same,TGI,NCI-H522 lung,40.2 nM
same,GI50,OVCAR-3 ovarian,30.2 nM
same,TGI,OVCAR-3 ovarian,277 nM
same,GI50,OVCAR-4 ovarian,521 nM
same,TGI,OVCAR-4 ovarian,2090 nM
same,GI50,OVCAR-5 ovarian,468 nM
same,TGI,OVCAR-5 ovarian,1860 nM
same,GI50,OVCAR-8 ovarian,189 nM
same,TGI,OVCAR-8 ovarian,1220 nM
same,GI50,PC-3 prostate,57 nM
same,TGI,PC-3 prostate,1590 nM
same,GI50,RXF 393 renal,41 nM
same,TGI,RXF 393 renal,288 nM
same,GI50,SF-268 CNS,48.6 nM
same,TGI,SF-268 CNS,1450 nM
same,GI50,SF-295 CNS,227 nM
same,TGI,SF-295 CNS,650 nM
same,GI50,SF-539 CNS,27.3 nM
same,TGI,SF-539 CNS,75.1 nM
same,GI50,SK-MEL-2 melanoma,21.6 nM
same,TGI,SK-MEL-2 melanoma,43.5 nM
same,GI50,SK-MEL-28 melanoma,1290 nM
same,TGI,SK-MEL-28 melanoma,2560 nM
same,GI50,SK-MEL-5 melanoma,77.4 nM
same,TGI,SK-MEL-5 melanoma,737 nM
same,GI50,SK-OV-3 ovarian,29.9 nM
same,TGI,SK-OV-3 ovarian,648 nM
same,GI50,SN12C renal,109 nM
same,TGI,SN12C renal,1860 nM
same,GI50,SNB-19 CNS,863 nM
same,TGI,SNB-19 CNS,2160 nM
same,GI50,SNB-75 CNS,58.9 nM
same,TGI,SNB-75 CNS,1530 nM
same,GI50,SR leukemia,18.9 nM
same,TGI,SR leukemia,34.3 nM
same,GI50,SW-620 colon,65.2 nM
same,TGI,SW-620 colon,1250 nM
same,GI50,T-47D breast,57.7 nM
same,TGI,T-47D breast,1600 nM
same,GI50,TK-10 renal,1070 nM
same,TGI,TK-10 renal,2270 nM
same,GI50,U251 glioblastoma,45 nM
same,TGI,U251 glioblastoma,1330 nM
same,GI50,UACC-257 melanoma,60.4 nM
same,TGI,UACC-257 melanoma,1900 nM
same,GI50,UACC-62 melanoma,51.7 nM
same,TGI,UACC-62 melanoma,1440 nM
same,GI50,UO-31 renal,1790 nM
same,TGI,UO-31 renal,3180 nM

# Reference: PubChem BioAssay (NCI)
